The source made the active and inactive calls. The calls are words filed in the database; no cut-off is given here.
How the values were obtained:
[1] = target: T1, Sodium/glucose cotransporter 2 (Homo sapiens, UniProt P31639); experiment: Inhibition of human SGLT2 expressed in CHO-K1 cells assessed as reduction in [14C]AMG uptake after 120 mins by scintillation counting method; type: cell-based
T1 sequence (P31639 whole entry): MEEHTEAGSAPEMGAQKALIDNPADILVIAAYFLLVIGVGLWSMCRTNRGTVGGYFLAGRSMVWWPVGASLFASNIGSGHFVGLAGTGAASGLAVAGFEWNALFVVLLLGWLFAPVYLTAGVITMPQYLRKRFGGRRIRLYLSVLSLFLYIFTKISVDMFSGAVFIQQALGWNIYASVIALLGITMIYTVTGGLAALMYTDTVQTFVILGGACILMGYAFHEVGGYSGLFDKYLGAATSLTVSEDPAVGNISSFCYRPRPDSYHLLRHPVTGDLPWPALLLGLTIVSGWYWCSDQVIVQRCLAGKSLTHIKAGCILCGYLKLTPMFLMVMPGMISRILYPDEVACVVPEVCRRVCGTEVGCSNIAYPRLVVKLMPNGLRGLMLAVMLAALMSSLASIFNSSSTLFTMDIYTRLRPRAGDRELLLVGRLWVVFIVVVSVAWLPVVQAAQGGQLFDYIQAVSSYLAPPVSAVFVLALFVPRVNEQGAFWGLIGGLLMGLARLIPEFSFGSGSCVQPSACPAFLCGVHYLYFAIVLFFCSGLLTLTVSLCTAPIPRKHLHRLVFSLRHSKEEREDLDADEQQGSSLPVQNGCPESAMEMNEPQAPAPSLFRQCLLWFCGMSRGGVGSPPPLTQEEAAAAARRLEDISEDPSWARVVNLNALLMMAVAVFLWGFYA

[2] = system: Rattus norvegicus; experiment: Induction of glucosuria in Sprague-Dawley rat assessed as increase in glucose excretion at 50 mg/kg administered as single dose via oral gavage after 24 hrs by oral glucose tolerance test; type: functional, organism-based
[3] = system: CHO-K1; experiment: Selectivity ratio of EC50 for human SGLT1 expressed in CHO-K1 cells to EC50 for human SGLT2 expressed in CHO-K1 cells; type: cell-based
[4] = Cmax in Sprague-Dawley rat at 1.1 mg/kg, po measured at 15 mins to 24 hrs post dose by LC-MS/MS analysis; type: ADME, organism-based; set-up: dose 1.1 mg/kg, route oral; details: in vivo
[5] = AUC (0 to infinity) in Sprague-Dawley rat at 1.1 mg/kg, iv administered via bolus injection measured at 2 to 5 mins post dose by LC-MS/MS analysis; type: ADME, organism-based; set-up: dose 1.1 mg/kg, route intravenous, time infinity; details: in vivo
[6] = system: Rattus norvegicus; experiment: Reduction of blood glucose level in Sprague-Dawley rat at 50 mg/kg, po administered as single dose via oral gavage after 0.5 to 1 hr by oral glucose tolerance test; type: functional, organism-based
[7] = system: Rattus norvegicus; experiment: Induction of glucosuria in Sprague-Dawley rat assessed as increase in glucose excretion per 200 g body weight at 50 mg/kg, administered as single dose via oral gavage after 24 hrs by oral glucose tolerance test (reference value: 0.23 mg); type: functional
[8] = Half life in Sprague-Dawley rat at 1.1 mg/kg, iv administered via bolus injection by LC-MS/MS analysis; type: ADME, organism-based; details: in vivo
[9] = Oral bioavailability in Sprague-Dawley rat at 1.1 mg/kg measured at 15 mins to 24 hrs after drug challenge by LC-MS/MS analysis; type: ADME, organism-based; details: in vivo
[10] = Volume of distribution at steady state in Sprague-Dawley rat at 1.1 mg/kg, iv administered via bolus injection measured at 2 to 5 mins post dose by LC-MS/MS analysis; type: ADME, organism-based; details: in vivo, read-out: Vdss
[11] = Tmax in Sprague-Dawley rat at 1.1 mg/kg, po measured at 15 mins to 24 hrs post dose by LC-MS/MS analysis; type: ADME, organism-based; details: in vivo
[12] = Half life in Sprague-Dawley rat at 1.1 mg/kg, po by LC-MS/MS analysis; type: ADME, organism-based; details: in vivo
[13] = system: Rattus norvegicus; experiment: Effect on glucose AUC in Sprague-Dawley rat at 50 mg/kg, po administered as single dose via oral gavage after 0.5 to 1 hr by oral glucose tolerance test; type: functional, organism-based
[14] = AUC (0 to infinity) in Sprague-Dawley rat at 1.1 mg/kg, po measured at 15 mins to 24 hrs post dose by LC-MS/MS analysis; type: ADME, organism-based; set-up: dose 1.1 mg/kg, time infinity, route oral; details: in vivo
[15] = Clearance in Sprague-Dawley rat at 1.1 mg/kg, iv administered via bolus injection measured at 2 to 5 mins post dose by LC-MS/MS analysis; type: ADME, organism-based; details: in vivo

Work on `CCOC(=O)NC(=O)NC[C@H]1O[C@@H](n2cc(Cc3ccc(C4CC4)cc3)c3c(Cl)cccc32)[C@H](O)[C@@H](O)[C@@H]1O` yielded an EC50 [1] of 1000 nM.

With `COC(=O)CC(=O)NC[C@H]1O[C@@H](n2cc(Cc3ccc(C4CC4)cc3)c3c(Cl)cccc32)[C@H](O)[C@@H](O)[C@@H]1O` the EC50 [1] was 39 nM and the Activity [2] was “inactive”.

`COCCCNC(=S)NC[C@H]1O[C@@H](n2cc(Cc3ccc(C4CC4)cc3)c3c(Cl)cccc32)[C@H](O)[C@@H](O)[C@@H]1O` gave an EC50 [1] of 586 nM.

Work on `CCOC(=O)CC(=O)NC[C@H]1O[C@@H](n2cc(Cc3ccc(C4CC4)cc3)c3c(Cl)cccc32)[C@H](O)[C@@H](O)[C@@H]1O` yielded an EC50 [1] of 118 nM.

Work on `O=C(NCCCCl)NC[C@H]1O[C@@H](n2cc(Cc3ccc(C4CC4)cc3)c3c(Cl)cccc32)[C@H](O)[C@@H](O)[C@@H]1O` yielded an EC50 [1] of 151 nM and a Ratio EC50 [3] of 6.

Compound `O[C@@H]1[C@@H](O)[C@H](n2cc(Cc3ccc(C4CC4)cc3)c3c(Cl)cccc32)OC[C@H]1O` has a Ratio EC50 [3] of 2.

With `OC[C@H]1O[C@@H](n2cc(Cc3ccc(C4CC4)cc3)c3c(Cl)cccc32)[C@H](O)[C@@H](O)[C@@H]1O` the EC50 [1] was 14 nM and the Ratio EC50 [3] was 2.

Work on `O=C(NC[C@H]1O[C@@H](n2cc(Cc3ccc(C4CC4)cc3)c3c(Cl)cccc32)[C@H](O)[C@@H](O)[C@@H]1O)C1CC1` yielded an EC50 [1] of 552 nM.

In the case of `CCOC(=O)CNC(=S)NC[C@H]1O[C@@H](n2cc(Cc3ccc(C4CC4)cc3)c3c(Cl)cccc32)[C@H](O)[C@@H](O)[C@@H]1O`, the EC50 [1] is reported as 286 nM and the Ratio EC50 [3] is reported as 3.

Work on `COC(=O)c1cn(C[C@H]2O[C@@H](n3cc(Cc4ccc(C5CC5)cc4)c4c(Cl)cccc43)[C@H](O)[C@@H](O)[C@@H]2O)nn1` yielded an EC50 [1] of 119 nM.

`CCOC(=O)CCC(=O)NC[C@H]1O[C@@H](n2cc(Cc3ccc(C4CC4)cc3)c3c(Cl)cccc32)[C@H](O)[C@@H](O)[C@@H]1O` showed an EC50 [1] of 588 nM.

Compound `O=C(CSc1ccccc1)NC[C@H]1O[C@@H](n2cc(Cc3ccc(C4CC4)cc3)c3c(Cl)cccc32)[C@H](O)[C@@H](O)[C@@H]1O` has an EC50 [1] of 2090 nM.

With `O=C(NC[C@H]1O[C@@H](n2cc(Cc3ccc(C4CC4)cc3)c3c(Cl)cccc32)[C@H](O)[C@@H](O)[C@@H]1O)C(Cl)Cl` the EC50 [1] was 184 nM.

In the case of `O=C(CCCl)NC[C@H]1O[C@@H](n2cc(Cc3ccc(C4CC4)cc3)c3c(Cl)cccc32)[C@H](O)[C@@H](O)[C@@H]1O`, the EC50 [1] is reported as 160 nM.

With `COc1ccc(NC(=S)NC[C@H]2O[C@@H](n3cc(Cc4ccc(C5CC5)cc4)c4c(Cl)cccc43)[C@H](O)[C@@H](O)[C@@H]2O)cc1` the EC50 [1] was 485 nM.

`COc1ccc(C(=O)NC[C@H]2O[C@@H](n3cc(Cc4ccc(C5CC5)cc4)c4c(Cl)cccc43)[C@H](O)[C@@H](O)[C@@H]2O)cc1` gave an EC50 [1] of 2370 nM.

`O=C(Cc1cccs1)NC[C@H]1O[C@@H](n2cc(Cc3ccc(C4CC4)cc3)c3c(Cl)cccc32)[C@H](O)[C@@H](O)[C@@H]1O` gave an EC50 [1] of 499 nM.

`CCOc1cn(C[C@H]2O[C@@H](n3cc(Cc4ccc(C5CC5)cc4)c4c(Cl)cccc43)[C@H](O)[C@@H](O)[C@@H]2O)nn1` showed an EC50 [1] of 655 nM.

Work on `O=C(CCl)NC[C@H]1O[C@@H](n2cc(Cc3ccc(C4CC4)cc3)c3c(Cl)cccc32)[C@H](O)[C@@H](O)[C@@H]1O` yielded an EC50 [1] of 113 nM.

With `O=C(O)CC(=O)NC[C@H]1O[C@@H](n2cc(Cc3ccc(C4CC4)cc3)c3c(Cl)cccc32)[C@H](O)[C@@H](O)[C@@H]1O` the EC50 [1] was 3440 nM.

With `CC(=O)NC[C@H]1O[C@@H](n2cc(Cc3ccc(C4CC4)cc3)c3c(Cl)cccc32)[C@H](O)[C@@H](O)[C@@H]1O` the Cmax [4] was 25.2 ng/mL, the AUC(0-inf) [5] was 996 ng·h/mL and the Activity [6] was “Active”. The Activity [7] was 101 mg, the half-life [8] was 192 min and the EC50 [1] was 42 nM. For the same compound, the bioavailability [9] was 10%, the Vd [10] was 2.7 L/kg and the Tmax [11] was 1.2 h. For the same compound, the half-life [12] was 150 min, the Activity [13] was “inactive” and the AUC(0-inf) [14] was 99 ng·h/mL. The clearance [15] was 18.8 mL/min/kg.

With `O=C(CCBr)NC[C@H]1O[C@@H](n2cc(Cc3ccc(C4CC4)cc3)c3c(Cl)cccc32)[C@H](O)[C@@H](O)[C@@H]1O` the EC50 [1] was 151 nM.

For `O=C(O)c1cn(C[C@H]2O[C@@H](n3cc(Cc4ccc(C5CC5)cc4)c4c(Cl)cccc43)[C@H](O)[C@@H](O)[C@@H]2O)nn1`, the EC50 [1] was 2720 nM.

`CC(C)C(=O)NC[C@H]1O[C@@H](n2cc(Cc3ccc(C4CC4)cc3)c3c(Cl)cccc32)[C@H](O)[C@@H](O)[C@@H]1O` gave an EC50 [1] of 649 nM.

`NC[C@H]1O[C@@H](n2cc(Cc3ccc(C4CC4)cc3)c3c(Cl)cccc32)[C@H](O)[C@@H](O)[C@@H]1O` showed an EC50 [1] of 237 nM and a Ratio EC50 [3] of 9.

With `CNC(=S)NC[C@H]1O[C@@H](n2cc(Cc3ccc(C4CC4)cc3)c3c(Cl)cccc32)[C@H](O)[C@@H](O)[C@@H]1O` the EC50 [1] was 315 nM.

For `CCNC(=S)NC[C@H]1O[C@@H](n2cc(Cc3ccc(C4CC4)cc3)c3c(Cl)cccc32)[C@H](O)[C@@H](O)[C@@H]1O`, the EC50 [1] was 716 nM.

In the case of `O[C@@H]1[C@@H](O)[C@H](n2cc(Cc3ccc(C4CC4)cc3)c3c(Cl)cccc32)O[C@H](Cn2cc(C3CCCC3)nn2)[C@H]1O`, the EC50 [1] is reported as 1590 nM.

`O=C(NCCCl)NC[C@H]1O[C@@H](n2cc(Cc3ccc(C4CC4)cc3)c3c(Cl)cccc32)[C@H](O)[C@@H](O)[C@@H]1O` showed an EC50 [1] of 598 nM.

For `O=C(NC[C@H]1O[C@@H](n2cc(Cc3ccc(C4CC4)cc3)c3c(Cl)cccc32)[C@H](O)[C@@H](O)[C@@H]1O)c1ccc(CCl)cc1`, the EC50 [1] was 2590 nM.

`O[C@@H]1[C@@H](O)[C@H](n2cc(Cc3ccc(C4CC4)cc3)c3c(Cl)cccc32)O[C@H](Cn2cc(C3CC3)nn2)[C@H]1O` gave an EC50 [1] of 359 nM.

With `CCOC(=O)CNC(=O)NC[C@H]1O[C@@H](n2cc(Cc3ccc(C4CC4)cc3)c3c(Cl)cccc32)[C@H](O)[C@@H](O)[C@@H]1O` the EC50 [1] was 515 nM.

`CCOC(=O)C(=O)NC[C@H]1O[C@@H](n2cc(Cc3ccc(C4CC4)cc3)c3c(Cl)cccc32)[C@H](O)[C@@H](O)[C@@H]1O` showed an EC50 [1] of 249 nM.

Compound `O=C(NC[C@H]1O[C@@H](n2cc(Cc3ccc(C4CC4)cc3)c3c(Cl)cccc32)[C@H](O)[C@@H](O)[C@@H]1O)c1ccno1` has an EC50 [1] of 387 nM.

In the case of `COC(=O)C(=O)NC[C@H]1O[C@@H](n2cc(Cc3ccc(C4CC4)cc3)c3c(Cl)cccc32)[C@H](O)[C@@H](O)[C@@H]1O`, the EC50 [1] is reported as 284 nM and the Ratio EC50 [3] is reported as 20.
